# Article PMC5440646, “T Cell Costimulation by CD6 Is Dependent on Bivalent Binding of a GADS/SLP-76 Complex” (Molecular and Cellular Biology, 2017)
# pKd: −log10 of the molar value. Like-named read-outs stand apart in the source and are kept apart here. Where a SMILES comes first, the peptide text is derived from it. Where no end group is shown, it is not given here. [ ]: non-standard residue; d: D form. The star is where a group is joined. Biotin = O=C1N[C@H]2[C@H](CS[C@H]2CCCCC(=O)*)N1; pY = N[C@@H](Cc1ccc(OP(=O)(O)O)cc1)C(=O)O
# Experiments:
# [1] = target: T1, TSAd SH2 (Homo sapiens, UniProt Q9NP31); test: SPR equilibrium binding of recombinant TSAd SH2 domain to immobilized phosphopeptides; details: equilibrium binding of soluble recombinant SH2 domain to immobilized biotinylated peptide, 37°C, 1:1 Langmuir, range, n = 3 (CD28 pYMN: n = 1)
# T1 construct: Recombinant His-tagged SH2 domains of GADS, GRB2, and TSAd in the popinF vector; His tag; made in house; host or cells: Escherichia coli Rosetta(DE3)/pLysS
# T1 sequence (Q9NP31 95-186 limits assumed): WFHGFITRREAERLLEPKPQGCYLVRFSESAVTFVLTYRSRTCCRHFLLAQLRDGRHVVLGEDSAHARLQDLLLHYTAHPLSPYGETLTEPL
# Text: (§1) We measured the direct binding of purified monomeric SH2 domains to the phosphorylated CD6 Y629 peptide at physiological temperature using surface plasmon resonance (SPR) (Fig. 1). The sensorgram traces for all three proteins binding to phosphorylated CD6 Y629 are consistent with monomeric binding of all three proteins (Fig. 1, right). Equilibrium binding data were plotted to determine dissociation constants (KDs) (Fig. 1, left). GADS and GRB2 bound with similar KDs to phosphorylated Y629, at 1 to 3 μM and 2 to 4 μM, respectively (Fig. 1A and B and Table 2). As an indication that the recombinant proteins were active, the SH2 domains of GADS and GRB2 bound to a phosphorylated CD28-derived peptide containing the YXN motif with an affinity (KD = 2 to 3 μM) similar to that determined by previous measurements (Fig. 1 and Table 2) ([14]).
# Recombinant His-tagged SH2 domains of GADS, GRB2, and TSAd in the popinF vector (provided by Louis Bird, Oxford Protein Production Facility, Harwell, Oxfordshire, UK) and SLP-76 ([1]) were expressed in Escherichia coli Rosetta(DE3)/pLysS competent cells (Novagen) and purified by nickel affinity chromatography and size exclusion chromatography. […] Background signals of proteins over a streptavidin-coated flow cell were subtracted, equilibrium binding data were plotted, and KDs for 1:1 Langmuir binding were determined.
# [2] = target: T2, GADS SH2 (Homo sapiens, UniProt O75791); test: SPR equilibrium binding of recombinant GADS SH2 domain to immobilized phosphopeptides; details: 37°C; for Kd: range; for pKd: fitted equilibrium curve of the experiment shown, 2-fold serial dilutions of GADS SH2 from 35 μM over immobilized peptide, streptavidin background subtracted, read-out: KD, GADS SH2 (Fig. 1A)
# T2 construct: Recombinant His-tagged SH2 domains of GADS, GRB2, and TSAd in the popinF vector; His tag; made in house; host or cells: Escherichia coli Rosetta(DE3)/pLysS
# T2 sequence (O75791 58-149 limits assumed): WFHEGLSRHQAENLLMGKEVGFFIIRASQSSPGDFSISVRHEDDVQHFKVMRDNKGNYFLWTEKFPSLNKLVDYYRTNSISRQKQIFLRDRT
# Text: as §1
# (§2) Recombinant His-tagged SH2 domains of GADS, GRB2, and TSAd in the popinF vector (provided by Louis Bird, Oxford Protein Production Facility, Harwell, Oxfordshire, UK) and SLP-76 ([1]) were expressed in Escherichia coli Rosetta(DE3)/pLysS competent cells (Novagen) and purified by nickel affinity chromatography and size exclusion chromatography. Peptides for CD6 pY662 (biotin-[…]pYDDISAA), CD6 Y629 (biotin-[…]), CD6 pY629 (biotin-SSGEWpYQNFQP), and CD28 pYMNM (biotin-LLHSDpYMNMTP) were immobilized at ∼25 response units on streptavidin-coated CM5 chips in a BIAcore 3000 machine (Peptide Protein Research Ltd., Hampshire, UK) ([1], [14]). Long CD6 peptides (biotin-[…]pYDDISAA) phosphorylated at Y629 (pY629), Y662 (pY662), or both (pY629 pY662) were immobilized at ∼50 response units. Serially diluted proteins were injected over the chip at 10 μl/min at 37°C. Background signals of proteins over a streptavidin-coated flow cell were subtracted, equilibrium binding data were plotted, and KDs for 1:1 Langmuir binding were determined.
# [3] = target: T3, GRB2 SH2 (Homo sapiens, UniProt P62993); test: SPR equilibrium binding of recombinant GRB2 SH2 domain to immobilized phosphopeptides; details: 37°C; for Kd: equilibrium binding of soluble recombinant SH2 domain to immobilized biotinylated peptide (~25 RU on streptavidin-coated CM5 chip), 1:1 Langmuir, range, n = 3, read-out: KD (μM) GRB2 SH2
# T3 construct: Recombinant His-tagged SH2 domains of GADS, GRB2, and TSAd in the popinF vector; His tag; made in house; host or cells: Escherichia coli Rosetta(DE3)/pLysS
# T3 sequence (P62993 60-152 limits assumed): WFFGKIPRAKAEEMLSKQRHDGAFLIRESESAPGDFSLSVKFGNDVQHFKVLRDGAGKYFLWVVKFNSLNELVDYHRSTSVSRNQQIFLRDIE
# Text: as §1, §2
# [4] = target: T4, SLP-76 SH2 (Homo sapiens, UniProt Q13094); test: SPR equilibrium binding of recombinant SLP-76 SH2 domain to immobilized long CD6 peptides; details: 37°C; for Kd: equilibrium binding of soluble recombinant SH2 domain to immobilized long CD6 peptides (~50 RU), range, n = 3
# T4 construct: 2-fold serial dilutions of GADS (10 μM) (A) and SLP-76 (20 μM) (B) SH2 domains over the long CD6 peptides; His tag; made in house; host or cells: Escherichia coli Rosetta(DE3)/pLysS
# T4 sequence (Q13094 422-530 limits assumed): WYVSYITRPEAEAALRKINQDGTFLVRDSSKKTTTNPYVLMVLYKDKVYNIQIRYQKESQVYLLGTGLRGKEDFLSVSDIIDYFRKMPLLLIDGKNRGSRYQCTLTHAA
# Text: SPR analysis with long peptides containing both Y629 and Y662 phosphorylated at either or both tyrosine residues confirmed the specificity of the SH2 domains of GADS and SLP-76 for the CD6 Y629 and Y662 motifs, respectively (Fig. 3 and Table 3). […] Coprecipitation of GADS with CD6 was not observed in Jurkat (J14) cells, which lack SLP-76 (data not shown). GADS and SLP-76 interact with each other independently of their SH2 domains. A GADS SH3 domain binds to a proline-rich region of SLP-76 ([15]). This configuration means that both SH2 domains are available for bivalent binding to two phosphorylated tyrosine residues in close proximity. CD6 Y629 is the closest tyrosine residue to CD6 Y662 in the linear amino acid sequence of the cytoplasmic region.
# as §2
# [5] = equilibrium binding of soluble recombinant SH2 domain to immobilized biotinylated peptide (~25 RU on streptavidin-coated CM5 chip), 1:1 Langmuir, n = 3, read-out: KD (μM) GADS SH2
# [6] = equilibrium binding of soluble recombinant SH2 domain to immobilized long CD6 peptides (~50 RU), n = 3, read-out: KD (μM) (range) GADS SH2
compound,measurement,setting,value
NC(=O)CC[C@H](NC(=O)[C@H](Cc1ccc(OP(=O)(O)O)cc1)NC(=O)[C@H](Cc1c[nH]c2ccccc12)NC(=O)[C@H](CCC(=O)O)NC(=O)CNC(=O)[C@H](CO)NC(=O)[C@H](CO)NC(=O)CCCC[C@@H]1SC[C@@H]2NC(=O)N[C@@H]21)C(=O)N[C@@H](CC(N)=O)C(=O)N[C@@H](Cc1ccccc1)C(=O)N[C@@H](CCC(N)=O)C(=O)N1CCC[C@H]1C(=O)O [CD6 pY629] (Biotin-SSGEW[pY]QNFQP-OH),Kd,[1],26 to 58 µM
same,Kd,[2]; [5],1 to 3 µM
same,pKd,[2],6.00
same,Kd,[3],2 to 4 µM
same,pKd,"[3]; fitted equilibrium curve of the experiment shown, 2-fold serial dilutions of GRB2 SH2 from 106 μM over immobilized peptide, streptavidin background subtracted, read-out: KD, GRB2 SH2 (Fig. 1B)",5.70
"CSCC[C@H](NC(=O)[C@H](Cc1ccc(OP(=O)(O)O)cc1)NC(=O)[C@H](CC(=O)O)NC(=O)[C@H](CO)NC(=O)[C@H](Cc1c[nH]cn1)NC(=O)[C@H](CC(C)C)NC(=O)[C@H](CC(C)C)NC(=O)CCCC[C@@H]1SC[C@@H]2NC(=O)N[C@@H]21)C(=O)N[C@@H](CC(N)=O)C(=O)N[C@@H](CCSC)C(=O)N[C@H](C(=O)N1CCC[C@H]1C(=O)O)[C@@H](C)O [CD28 pYMN, reference compound] (Biotin-LLHSD[pY]MNMTP-OH)",Kd,[2]; [5],2 to 3 µM
same,pKd,[2],5.70
same,Kd,[3],2 to 3 µM
Biotin-STSSGEWYQNFQPPPQPPSEEQFGCPGSPSPQPDSTDNDD[pY]DDISAA [pY662],Kd,[4],0.3 to 2 µM
Biotin-STSSGEW[pY]QNFQPPPQPPSEEQFGCPGSPSPQPDSTDNDDYDDISAA [pY629],Kd,[2]; [6],0.2 to 0.6 µM
same,binding of the SLP-76 SH2 domain,"[4]; long CD6 peptides, data not shown",no binding
Biotin-STSSGEW[pY]QNFQPPPQPPSEEQFGCPGSPSPQPDSTDNDD[pY]DDISAA [pY629 pY662],Kd,[2]; [6],0.1 to 2 µM
same,Kd,[4],0.3 to 2 µM
